Activity calls are given as the source filed them.
Assays:
[1] = NIH-3T3 fibroblast cytotoxicity, dose response, cytotoxicity control, cell-based, fluorescence, Alamar Blue, secondary assay (AID 2327); type: functional;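 also: NIH-3T3 mouse fibroblasts cultured with fluconazole at 8 µg/mL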
Beta-galactosidase = Beta-galactosidase (Escherichia coli, UniProt Q8VNN2); assay: PubChem AID 485352; type: functional
[2] = fluconazole-exposed Candida albicans growth modulators – fluorescence, retest, confirmation (AID 2467); type: functional, cell-based
[3] = target: T1, Type-1 angiotensin II receptor (Homo sapiens, UniProt P30556); assay: antagonism of angiotensin II type 1 receptor – cell-based, uHTS hits, selectivity assay for APJ receptor antagonist project, dose response (AID 463214); type: functional;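 also: antagonist potency against angiotensin II stimulated AT1 response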
T1 sequence (P30556 whole entry): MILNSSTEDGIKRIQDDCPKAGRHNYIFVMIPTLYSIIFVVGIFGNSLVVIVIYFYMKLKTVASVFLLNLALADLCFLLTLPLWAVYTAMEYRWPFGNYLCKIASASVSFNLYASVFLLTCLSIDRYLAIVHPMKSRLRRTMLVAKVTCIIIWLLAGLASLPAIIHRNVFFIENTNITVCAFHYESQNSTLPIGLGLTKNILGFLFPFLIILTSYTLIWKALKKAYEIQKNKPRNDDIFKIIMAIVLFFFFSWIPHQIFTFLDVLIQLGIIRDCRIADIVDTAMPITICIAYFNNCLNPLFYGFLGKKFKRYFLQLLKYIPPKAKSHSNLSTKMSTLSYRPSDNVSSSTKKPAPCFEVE

[4] = target: T2, Serine/threonine-protein phosphatase (Candida dubliniensis (strain CD36 / CBS 7987 / NCPF 3949 / NRRLY-17841) (Yeast), UniProt B9W6M3); assay: blockers of CaCl2-induced CDRE-lacZ signaling – S. cerevisiae, luminescence, secondary, dose response (AID 2388); type: functional, cell-based;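 also: yeast reporter cells carrying a calcineurin-responsive lacZ construct stimulated with calcium chloride; luminescent beta-galactosidase reporter signal in whole cells rather than isolated phosphatase activity; potency for inhibition where a drop in reporter signal means calcineurin blockade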
T2 sequence (B9W6M3 whole entry): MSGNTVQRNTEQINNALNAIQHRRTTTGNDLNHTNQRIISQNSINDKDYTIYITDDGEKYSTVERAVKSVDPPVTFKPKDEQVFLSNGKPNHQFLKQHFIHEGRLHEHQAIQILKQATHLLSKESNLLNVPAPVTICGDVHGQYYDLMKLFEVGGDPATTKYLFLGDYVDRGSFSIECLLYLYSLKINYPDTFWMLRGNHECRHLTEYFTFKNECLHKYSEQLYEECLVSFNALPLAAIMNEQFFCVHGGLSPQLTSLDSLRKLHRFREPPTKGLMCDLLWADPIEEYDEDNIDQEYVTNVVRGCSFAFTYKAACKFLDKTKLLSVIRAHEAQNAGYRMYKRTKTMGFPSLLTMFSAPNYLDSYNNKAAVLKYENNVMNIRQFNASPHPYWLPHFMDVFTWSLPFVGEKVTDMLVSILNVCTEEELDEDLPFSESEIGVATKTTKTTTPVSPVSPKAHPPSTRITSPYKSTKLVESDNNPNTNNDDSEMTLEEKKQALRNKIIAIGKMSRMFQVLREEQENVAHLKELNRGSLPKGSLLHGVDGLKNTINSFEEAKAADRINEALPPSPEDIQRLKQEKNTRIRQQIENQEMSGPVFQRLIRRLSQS

[5] = target: ATP-dependent molecular chaperone HSP82 (Candida albicans (strain WO-1) (Yeast), UniProt C4YTQ8); assay: steroid-induced GRE reporter decrease in yeast – S. cerevisiae, luminescence, Hsp90 inhibitor project, dose response (AID 2400); type: functional, cell-based;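 also: beta-galactosidase luminescence from glucocorticoid response element reporter as proxy for Hsp90 function; inhibitor potency where signal loss means Hsp90 inhibition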
Jurkat = assay: SAR Analysis of small molecule inhibitors of […] specific antigen receptor-induced NF-kB activation in a Jurkat cell line using a luminescence assay - Set 3. [Related pubchem assays (depositor defined):AID435022, AID435025, AID465]; type: functional, cell-based; details: Homo sapiens
HEK293 [6] = assay: SAR Analysis of small molecule inhibitors of B-cell specific antigen receptor-induced NF-kB activation in a HEK-293T cell line using a luminescence assay - Set 2. [Related pubchem assays (depositor defined):AID435022, AID435025, AID489021]; type: functional, cell-based; details: Homo sapiens
HEK293 [7] = assay: HEK293T cell viability loss, resazurin readout – resazurin fluorescence, cytotoxicity control for NF-kB activator project, SAR follow-up (AID 493251); type: functional, cell-based; details: Homo sapiens
HEK293 [8] = assay: cells; type: functional, cell-based; details: Homo sapiens
[9] = target: T3, Nuclear receptor subfamily 0 group B member 1 (Homo sapiens, UniProt P51843); assay: Luminescence-based cell-based high throughput dose response assay for inhibitors of the orphan nuclear receptor subfamily 0, group B, member 1 (DAX1; NR0B1). [Related pubchem assays (depositor defined):AID504766, AID504790]; type: functional
T3 sequence (P51843 whole entry): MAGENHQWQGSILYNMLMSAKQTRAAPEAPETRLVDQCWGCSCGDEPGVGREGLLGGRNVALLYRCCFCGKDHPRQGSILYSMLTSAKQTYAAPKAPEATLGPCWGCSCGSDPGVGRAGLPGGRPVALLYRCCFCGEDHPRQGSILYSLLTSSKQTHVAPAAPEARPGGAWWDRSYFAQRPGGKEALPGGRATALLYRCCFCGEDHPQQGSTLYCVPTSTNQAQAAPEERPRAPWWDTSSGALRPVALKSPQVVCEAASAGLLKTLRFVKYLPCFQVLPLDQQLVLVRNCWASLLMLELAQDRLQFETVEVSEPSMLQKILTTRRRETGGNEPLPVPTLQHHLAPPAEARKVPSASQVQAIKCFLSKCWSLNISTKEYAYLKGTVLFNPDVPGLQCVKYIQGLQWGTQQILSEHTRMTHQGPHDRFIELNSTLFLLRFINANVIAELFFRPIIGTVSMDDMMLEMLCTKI

[10] = target: T4, Oxysterols receptor LXR-beta (Homo sapiens, UniProt P55055); type: functional, cell-based;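 also: Cell-based luminescence dose-response assay of agonist activity at LXR, run as a confirmatory counterscreen to a daf-12 agonist screen; HEK293 cells with Gal4-LXR fusion and GAL4-driven luciferase reporter; agonist potency from rising luciferase signal of a Gal4-LXR reporter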
T4 sequence (P55055 whole entry): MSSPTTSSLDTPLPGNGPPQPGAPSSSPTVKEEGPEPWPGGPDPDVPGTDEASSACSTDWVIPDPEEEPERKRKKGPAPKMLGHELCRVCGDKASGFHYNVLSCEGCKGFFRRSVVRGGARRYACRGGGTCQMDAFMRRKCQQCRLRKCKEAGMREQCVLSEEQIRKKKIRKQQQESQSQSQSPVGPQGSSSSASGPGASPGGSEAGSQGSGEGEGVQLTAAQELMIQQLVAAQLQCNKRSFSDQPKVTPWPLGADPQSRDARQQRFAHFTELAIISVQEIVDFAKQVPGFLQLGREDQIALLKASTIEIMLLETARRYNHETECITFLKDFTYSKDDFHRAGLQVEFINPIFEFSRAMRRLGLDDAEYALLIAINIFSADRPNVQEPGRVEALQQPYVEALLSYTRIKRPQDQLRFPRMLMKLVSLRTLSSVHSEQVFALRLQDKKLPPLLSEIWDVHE

[11] = target: T5, Nucleotide-binding oligomerization domain-containing protein 2 (Homo sapiens, UniProt Q9HC29); assay: inhibition of NOD2-driven NF-kB reporter – cell-based, luminescence, uHTS, HEK293 (AID 1566); type: functional
Tumor necrosis factor = Tumor necrosis factor (Homo sapiens, UniProt P01375); assay: analog potency on TNFa NF-kB signaling – cell-based, revised, SAR follow-up (AID 2337); type: functional
[12] = target: T6, Nucleotide-binding oligomerization domain-containing protein 1 (Homo sapiens, UniProt Q9Y239); assay: blockers of NOD1 pathway activity – revised, SAR follow-up (AID 2333); type: functional
T6 sequence (Q9Y239 whole entry): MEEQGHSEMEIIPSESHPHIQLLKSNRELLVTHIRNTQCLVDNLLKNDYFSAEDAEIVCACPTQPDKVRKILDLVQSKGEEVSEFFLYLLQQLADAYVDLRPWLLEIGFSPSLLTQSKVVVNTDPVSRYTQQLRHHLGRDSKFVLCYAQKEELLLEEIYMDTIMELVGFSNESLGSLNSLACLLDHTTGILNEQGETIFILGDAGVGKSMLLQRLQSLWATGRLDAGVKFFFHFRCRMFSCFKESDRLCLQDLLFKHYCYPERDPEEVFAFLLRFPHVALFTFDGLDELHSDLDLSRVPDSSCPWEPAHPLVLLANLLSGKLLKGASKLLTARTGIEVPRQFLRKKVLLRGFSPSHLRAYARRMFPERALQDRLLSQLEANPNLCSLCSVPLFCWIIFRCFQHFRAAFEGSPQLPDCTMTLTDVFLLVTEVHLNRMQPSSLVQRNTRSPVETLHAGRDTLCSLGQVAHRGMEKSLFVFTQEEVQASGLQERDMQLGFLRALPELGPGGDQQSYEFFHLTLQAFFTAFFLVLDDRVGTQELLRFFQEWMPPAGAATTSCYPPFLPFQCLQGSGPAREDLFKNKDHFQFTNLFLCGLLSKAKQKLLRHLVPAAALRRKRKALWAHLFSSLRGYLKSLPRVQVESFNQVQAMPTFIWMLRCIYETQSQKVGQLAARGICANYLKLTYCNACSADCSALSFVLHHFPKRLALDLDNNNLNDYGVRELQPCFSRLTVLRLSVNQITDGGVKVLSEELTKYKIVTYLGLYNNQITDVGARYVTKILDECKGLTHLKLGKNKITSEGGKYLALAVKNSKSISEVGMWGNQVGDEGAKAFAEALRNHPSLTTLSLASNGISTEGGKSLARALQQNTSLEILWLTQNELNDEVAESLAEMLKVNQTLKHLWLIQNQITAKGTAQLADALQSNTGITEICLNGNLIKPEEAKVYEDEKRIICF

[13] = target: T5, Nucleotide-binding oligomerization domain-containing protein 2; assay: PubChem AID 2334; type: functional
[14] = target: T7, RNA-binding protein pos-1 (Caenorhabditis elegans, UniProt G5EF15); assay: disruptors of C. elegans POS-1 RNA interaction – biochemical, fluorescence polarization, dose response (AID 1964);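 also: purified POS-1 fused to maltose binding protein made in E. coli; potency of compounds blocking POS-1 binding to fluorescent RNA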
T7 sequence (G5EF15 whole entry): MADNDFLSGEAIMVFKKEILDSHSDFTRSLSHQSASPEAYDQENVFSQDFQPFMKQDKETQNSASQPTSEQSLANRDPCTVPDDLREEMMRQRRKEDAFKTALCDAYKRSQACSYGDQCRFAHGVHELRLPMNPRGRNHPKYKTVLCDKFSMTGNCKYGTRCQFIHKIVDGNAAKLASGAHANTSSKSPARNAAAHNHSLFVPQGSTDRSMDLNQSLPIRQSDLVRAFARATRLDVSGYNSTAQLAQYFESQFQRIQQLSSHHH

[15] = target: T8, Zinc finger protein mex-5 (Caenorhabditis elegans, UniProt Q9XUB2); assay: potency of MEX-5 RNA-binding blockers – biochemical, C. elegans, fluorescence polarization, dose response (AID 1960)
T8 sequence (Q9XUB2 whole entry): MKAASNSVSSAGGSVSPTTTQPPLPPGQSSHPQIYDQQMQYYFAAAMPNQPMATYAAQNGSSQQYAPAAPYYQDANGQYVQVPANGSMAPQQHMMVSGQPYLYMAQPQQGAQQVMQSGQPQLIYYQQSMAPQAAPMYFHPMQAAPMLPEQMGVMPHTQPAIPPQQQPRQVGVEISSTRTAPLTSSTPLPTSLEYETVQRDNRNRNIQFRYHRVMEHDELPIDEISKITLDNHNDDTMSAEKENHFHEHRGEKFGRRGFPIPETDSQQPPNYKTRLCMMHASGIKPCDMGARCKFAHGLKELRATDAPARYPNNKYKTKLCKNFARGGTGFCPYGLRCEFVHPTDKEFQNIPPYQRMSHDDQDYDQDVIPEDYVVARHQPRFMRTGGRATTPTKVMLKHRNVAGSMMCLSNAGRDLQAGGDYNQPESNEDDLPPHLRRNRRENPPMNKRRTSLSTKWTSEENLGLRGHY

Chain of Beta-galactosidase (Q8VNN2 whole entry): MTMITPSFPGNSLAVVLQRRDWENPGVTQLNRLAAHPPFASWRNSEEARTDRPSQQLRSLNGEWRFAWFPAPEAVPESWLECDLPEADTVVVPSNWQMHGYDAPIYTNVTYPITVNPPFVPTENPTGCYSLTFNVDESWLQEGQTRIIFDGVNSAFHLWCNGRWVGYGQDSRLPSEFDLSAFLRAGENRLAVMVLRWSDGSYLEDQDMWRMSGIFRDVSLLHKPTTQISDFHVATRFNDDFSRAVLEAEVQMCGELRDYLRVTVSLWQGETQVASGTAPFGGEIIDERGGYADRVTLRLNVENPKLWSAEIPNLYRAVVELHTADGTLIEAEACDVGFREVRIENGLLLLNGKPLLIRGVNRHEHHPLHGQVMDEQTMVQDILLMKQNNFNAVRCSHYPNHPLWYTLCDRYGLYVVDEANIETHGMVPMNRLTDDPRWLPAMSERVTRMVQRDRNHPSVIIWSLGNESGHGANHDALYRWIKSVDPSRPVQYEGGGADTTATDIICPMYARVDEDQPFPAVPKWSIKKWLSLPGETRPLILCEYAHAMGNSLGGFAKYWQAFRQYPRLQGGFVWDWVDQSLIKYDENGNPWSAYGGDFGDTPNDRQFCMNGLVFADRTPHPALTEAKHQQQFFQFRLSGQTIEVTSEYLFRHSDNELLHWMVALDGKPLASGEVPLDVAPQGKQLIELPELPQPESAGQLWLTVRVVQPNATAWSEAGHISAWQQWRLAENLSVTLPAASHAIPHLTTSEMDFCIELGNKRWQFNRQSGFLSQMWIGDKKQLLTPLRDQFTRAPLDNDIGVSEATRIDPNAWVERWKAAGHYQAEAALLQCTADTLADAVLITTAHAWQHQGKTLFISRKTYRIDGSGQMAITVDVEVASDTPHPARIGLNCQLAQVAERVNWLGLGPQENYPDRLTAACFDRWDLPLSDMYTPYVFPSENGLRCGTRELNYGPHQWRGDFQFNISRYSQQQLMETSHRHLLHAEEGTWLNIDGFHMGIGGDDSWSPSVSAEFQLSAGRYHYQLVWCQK
T5 sequence (Q9HC29 whole entry, the tested form may be a part): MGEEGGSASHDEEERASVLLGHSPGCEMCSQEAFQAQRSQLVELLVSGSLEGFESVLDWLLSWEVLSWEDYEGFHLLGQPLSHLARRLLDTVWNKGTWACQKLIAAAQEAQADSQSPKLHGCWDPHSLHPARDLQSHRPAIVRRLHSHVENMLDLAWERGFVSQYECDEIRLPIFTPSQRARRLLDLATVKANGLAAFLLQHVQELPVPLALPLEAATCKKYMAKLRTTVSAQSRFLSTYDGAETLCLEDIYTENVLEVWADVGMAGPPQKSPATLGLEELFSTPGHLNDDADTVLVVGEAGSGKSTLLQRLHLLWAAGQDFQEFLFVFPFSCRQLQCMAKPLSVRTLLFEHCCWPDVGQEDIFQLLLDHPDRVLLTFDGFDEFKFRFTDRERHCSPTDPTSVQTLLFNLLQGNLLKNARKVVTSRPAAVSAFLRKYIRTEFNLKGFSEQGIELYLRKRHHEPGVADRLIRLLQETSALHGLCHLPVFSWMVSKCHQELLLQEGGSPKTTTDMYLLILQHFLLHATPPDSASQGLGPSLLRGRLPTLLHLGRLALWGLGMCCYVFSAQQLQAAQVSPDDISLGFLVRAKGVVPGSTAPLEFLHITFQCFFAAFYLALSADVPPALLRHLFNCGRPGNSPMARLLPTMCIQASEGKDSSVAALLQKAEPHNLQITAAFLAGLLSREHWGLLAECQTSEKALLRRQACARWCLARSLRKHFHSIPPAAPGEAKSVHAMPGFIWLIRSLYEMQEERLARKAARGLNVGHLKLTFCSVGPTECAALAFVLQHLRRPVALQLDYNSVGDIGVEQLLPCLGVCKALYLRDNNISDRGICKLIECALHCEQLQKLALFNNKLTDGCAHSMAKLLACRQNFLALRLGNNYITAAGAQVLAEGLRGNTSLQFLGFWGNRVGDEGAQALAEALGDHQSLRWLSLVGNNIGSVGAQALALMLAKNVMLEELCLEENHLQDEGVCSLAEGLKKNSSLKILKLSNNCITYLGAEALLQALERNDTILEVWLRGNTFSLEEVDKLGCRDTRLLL
Chain of Tumor necrosis factor (P01375 whole entry, the tested form may be a part): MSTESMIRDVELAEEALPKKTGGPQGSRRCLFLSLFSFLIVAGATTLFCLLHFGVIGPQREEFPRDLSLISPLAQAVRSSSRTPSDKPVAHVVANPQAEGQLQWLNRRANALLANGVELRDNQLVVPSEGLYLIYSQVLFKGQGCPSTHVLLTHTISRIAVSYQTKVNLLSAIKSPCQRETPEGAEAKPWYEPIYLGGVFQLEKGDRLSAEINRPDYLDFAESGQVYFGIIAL
Chain of ATP-dependent molecular chaperone HSP82 (C4YTQ8 whole entry): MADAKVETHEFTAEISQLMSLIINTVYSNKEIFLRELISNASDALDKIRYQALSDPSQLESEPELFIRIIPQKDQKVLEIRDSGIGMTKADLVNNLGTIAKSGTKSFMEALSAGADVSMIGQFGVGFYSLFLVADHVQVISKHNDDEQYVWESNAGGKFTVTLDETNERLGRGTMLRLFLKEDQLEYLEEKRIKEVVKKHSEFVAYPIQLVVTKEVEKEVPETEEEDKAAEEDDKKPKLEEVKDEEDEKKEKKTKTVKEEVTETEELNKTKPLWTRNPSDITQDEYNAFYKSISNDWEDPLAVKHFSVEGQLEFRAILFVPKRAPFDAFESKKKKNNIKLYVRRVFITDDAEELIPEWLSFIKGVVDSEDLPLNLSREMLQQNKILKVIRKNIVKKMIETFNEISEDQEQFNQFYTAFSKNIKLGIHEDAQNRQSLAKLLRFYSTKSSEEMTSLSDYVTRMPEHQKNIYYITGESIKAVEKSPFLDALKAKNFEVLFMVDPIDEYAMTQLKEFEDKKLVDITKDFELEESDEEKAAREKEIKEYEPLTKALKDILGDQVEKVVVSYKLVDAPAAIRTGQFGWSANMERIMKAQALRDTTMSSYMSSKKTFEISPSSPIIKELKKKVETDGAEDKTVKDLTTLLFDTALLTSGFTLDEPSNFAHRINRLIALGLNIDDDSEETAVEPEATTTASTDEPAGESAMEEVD

Compound | EC50 (Beta-galactosidase) | IC50 [3] | IC50 (Jurkat) | IC50 (HEK293 [6]) | IC50 (HEK293 [7]) | IC50 (HEK293 [8]) | IC50 [9] | further results
CCC(C)c1ccc(O)c(NC(=S)NC(=O)c2cccnc2)c1 (stereo unspecified) | > 40 µM (inactive) | 14 µM (active) |  |  |  |  |  | EC50 [1]: > 150 µM (inactive); EC50 [2]: 0.632 µM (active); EC50 [4]: > 180 µM (inactive); EC50 [5]: 48.9 µM (active)
CC(C)(C)c1ccc(-c2noc(CCC(=O)Nc3cccc([N+](=O)[O-])c3)n2)cc1 |  |  | 60.7 µM (inactive) | 3.73 µM (active) | 22.1 µM (inactive) |  |  | 
Cc1ccc(-c2cc(-c3ccc(F)cc3)[nH]n2)c(O)c1 |  |  |  |  |  | > 67.5 µM (inactive) | > 67.5 µM (inactive) | EC50 [10]: > 67.5 µM (inactive); EC50 (cells): > 67.5 µM (inactive)
Fc1ccc(NC(=S)Nc2nccs2)cc1 | > 40 µM (inactive) | 25.2 µM (not active) |  |  |  |  |  | EC50 [11]: > 20 µM (inactive); IC50 (Tumor necrosis factor): > 20 µM (inactive); IC50 [12]: > 20 µM (inactive); IC50 [13]: > 20 µM (inactive)
Fc1ccc(-c2nc3c(Cl)cc(C(F)(F)F)cn3c2Cl)cc1 |  |  |  |  |  | > 67.6 µM (inactive) | > 67.6 µM (inactive) | EC50 [14]: 41.6 µM (active); EC50 [15]: 37.1 µM (active)
CCOc1ccc(-c2nc(CSCC(=O)NCCc3ccc(C)cc3)c(C)o2)cc1 |  |  | 49.8 µM (inactive) | 40.2 µM (inactive) | > 80 µM (inactive) |  |  | 

Source: ChEMBL document CHEMBL1201862, “PubChem BioAssay data set” (2004)
